Activity calls are given as the source filed them. The calls are words filed in the database; no cut-off is given here.
Tests used:
THP-1 [1] = test: Cytotoxicity against monocytic human THP-1 cells assessed as effect on lactate dehydrogenase activity in supernatant; assay type: toxicity, cell-based
THP-1 [2] = test: Induction of IL-1beta release in LPS primed monocytic human THP-1 cells at 10 uM primed with LPS for 5 hrs followed by compound addition and further incubated for 40 mins by ELISA; assay type: functional, cell-based
[3] = target: T1, Neuronal acetylcholine receptor; alpha4/beta2 (Homo sapiens) (UniProt P17787+P43681); test: (§1) Inhibition of acetylcholine induced response in human alpha4beta2 nAChR expressed in xenopus laevis oocytes assessed as fold change at 30 uM preincubated with 3 uM acetylcholine followed by compound administration for 12 sec and measured 181 sec post washout by two-electrode voltage-clamp electrophysiology method relative to acetylcholine alone; assay type: cell-based; settings: Oocyte
Oocyte [4] = test: as §1, with “mouse muscle alpha1beta1epsilondelta” for “human alpha4beta2”; assay type: cell-based
[5] = target: T1, Neuronal acetylcholine receptor; alpha4/beta2 (Homo sapiens); test: Agonist activity at human alpha4beta2 nAChR expressed in xenopus laevis oocytes at 30 uM measured after 120 secs by two-electrode voltage-clamp electrophysiology method relative to control; assay type: cell-based; settings: Oocyte, time 120.0 sec
[6] = target: T2, Neuronal acetylcholine receptor; alpha3/beta4 (Homo sapiens) (UniProt P30926+P32297); test: as §1, with “alpha3beta4” for “alpha4beta2”, “100” for “30”; assay type: cell-based; settings: Oocyte
[7] = target: T2, Neuronal acetylcholine receptor; alpha3/beta4 (Homo sapiens); test: Agonist activity at human alpha3beta4 nAChR expressed in xenopus laevis oocytes at 100 uM measured after 120 secs by two-electrode voltage-clamp electrophysiology method relative to control; assay type: cell-based; settings: Oocyte, time 120.0 sec
[8] = target: T3, Neuronal acetylcholine receptor subunit alpha-7 (Homo sapiens, UniProt P36544); test: Agonist activity at human alpha7 nAChR expressed as xenopus laevis oocytes assessed as increase in receptor desensitization by measuring fold change in peak current response at 30 uM incubated for 120 secs presence of PNU-120596 by two-electrode voltage-clamp electrophysiology method relative to acetylcholine; assay type: cell-based; settings: Oocyte, filed as agonist, time 120.0 sec
[9] = target: T4, Neuronal acetylcholine receptor subunit alpha-9 (Homo sapiens, UniProt Q9UGM1); test: Agonist activity at human alpha9 nAChR expressed as xenopus laevis oocytes assessed as increase in receptor desensitization by measuring fold change in maximum response (Imax) measured after 120 secs by two-electrode voltage-clamp electrophysiology method relative to acetylcholine; assay type: cell-based; settings: Oocyte, filed as agonist, time 120.0 sec
Oocyte [10] = test: Agonist activity at mouse muscle alpha1beta1epsilondelta nAChR expressed in xenopus laevis oocytes at 30 uM measured after 120 secs by two-electrode voltage-clamp electrophysiology method relative to control; assay type: cell-based; settings: time 120.0 sec
[11] = target: T5, Neuronal acetylcholine receptor; alpha9/alpha10 (Homo sapiens) (UniProt Q9UGM1+Q9GZZ6); test: Agonist activity at human alpha9alpha10 nAChR expressed as xenopus laevis oocytes assessed as increase in receptor desensitization by measuring fold change in maximum response (Imax) measured after 120 secs by two-electrode voltage-clamp electrophysiology method relative to acetylcholine; assay type: cell-based; settings: Oocyte, filed as agonist, time 120.0 sec
[12] = target: T3, Neuronal acetylcholine receptor subunit alpha-7; test: Partial agonist activity at human alpha7 nAChR expressed as xenopus laevis oocytes assessed as increase in receptor desensitization by measuring fold change in maximum response (Imax) measured after 120 secs by two-electrode voltage-clamp electrophysiology method relative to acetylcholine; assay type: cell-based; settings: Oocyte, filed as partial agonist, time 120.0 sec
[13] = human, caco-2, 2 h
Description: Apparent permeability across apical to basolateral side in human Caco-2 cells at 5 ug/ml measured after 2 hrs by UPLC-MS/MS analysis

[14] = target: T3, Neuronal acetylcholine receptor subunit alpha-7; test: Agonist activity at human alpha7 nAChR expressed as xenopus laevis oocytes assessed as increase in receptor desensitization by measuring fold change in maximum response (Imax) measured after 120 secs by two-electrode voltage-clamp electrophysiology method relative to acetylcholine; assay type: cell-based; settings: Oocyte, filed as agonist, time 120.0 sec
[15] = target: T3, Neuronal acetylcholine receptor subunit alpha-7; test: Ratio for agonist activity at human alpha7 nAChR expressed as xenopus laevis oocytes assessed as increase in receptor desensitization by measuring fold change in peak current response to agonist activity at human alpha7 nAChR expressed as xenopus laevis oocytes assessed as increase in receptor desensitization by measuring fold change in peak current response in presence of PNU-120596; assay type: cell-based; settings: Oocyte
[16] = target: T5, Neuronal acetylcholine receptor; alpha9/alpha10 (Homo sapiens); test: Partial agonist activity at human alpha9alpha10 nAChR expressed as xenopus laevis oocytes assessed as increase in receptor desensitization by measuring fold change in maximum response (Imax) measured after 120 secs by two-electrode voltage-clamp electrophysiology method relative to acetylcholine; assay type: cell-based; settings: Oocyte, filed as partial agonist, time 120.0 sec
[17] = target: T5, Neuronal acetylcholine receptor; alpha9/alpha10 (Homo sapiens); test: Agonist activity at alpha9alpha10 nAChR (unknown origin) assessed as fold change in maximum response (Imax) relative to acetylcholine; assay type: protein-complex assay; settings: filed as agonist
[18] = target: Neuronal acetylcholine receptor; alpha9/alpha10 (Homo sapiens, UniProt Q9GZZ6+Q9UGM1); test: Agonist activity at alpha9alpha10 nAChR (unknown origin); assay type: protein-complex assay
[19] = target: T4, Neuronal acetylcholine receptor subunit alpha-9; test: Agonist activity at alpha9 nAChR (unknown origin)
[20] = Metabolic stability in pooled BALB/c mouse plasma assessed as half life at 1 uM measured after 0 to 120 mins by UPLC-MS/MS analysis; assay type: ADME, cell-free; settings: time 0-120 min

T4 sequence (Q9UGM1 whole entry): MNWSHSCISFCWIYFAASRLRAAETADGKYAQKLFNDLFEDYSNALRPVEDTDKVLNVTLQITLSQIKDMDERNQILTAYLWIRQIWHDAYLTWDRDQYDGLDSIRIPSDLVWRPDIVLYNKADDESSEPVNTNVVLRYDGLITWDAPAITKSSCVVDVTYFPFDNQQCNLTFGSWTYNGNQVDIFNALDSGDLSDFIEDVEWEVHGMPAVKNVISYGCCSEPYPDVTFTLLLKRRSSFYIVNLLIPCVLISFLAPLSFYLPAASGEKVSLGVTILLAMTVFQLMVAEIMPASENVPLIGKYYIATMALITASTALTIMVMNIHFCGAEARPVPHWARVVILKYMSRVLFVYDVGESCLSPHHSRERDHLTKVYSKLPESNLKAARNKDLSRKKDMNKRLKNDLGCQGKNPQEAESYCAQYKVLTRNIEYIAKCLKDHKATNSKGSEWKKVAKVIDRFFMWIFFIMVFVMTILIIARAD
T3 sequence (P36544 whole entry): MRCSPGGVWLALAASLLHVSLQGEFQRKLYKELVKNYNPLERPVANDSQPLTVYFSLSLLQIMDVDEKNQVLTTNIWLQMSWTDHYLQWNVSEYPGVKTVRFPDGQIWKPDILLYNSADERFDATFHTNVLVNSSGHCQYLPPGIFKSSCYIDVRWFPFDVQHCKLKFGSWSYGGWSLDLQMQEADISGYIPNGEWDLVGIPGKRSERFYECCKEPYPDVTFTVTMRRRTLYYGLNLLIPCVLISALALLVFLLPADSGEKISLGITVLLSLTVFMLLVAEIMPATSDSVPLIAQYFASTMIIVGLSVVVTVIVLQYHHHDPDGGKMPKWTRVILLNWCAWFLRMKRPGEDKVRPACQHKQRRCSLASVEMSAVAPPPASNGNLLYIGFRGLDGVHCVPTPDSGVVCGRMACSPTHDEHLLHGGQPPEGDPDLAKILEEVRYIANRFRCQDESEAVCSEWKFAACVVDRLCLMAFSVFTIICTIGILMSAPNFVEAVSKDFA
Neuronal acetylcholine receptor; alpha9/alpha10, sequence (Q9UGM1 whole entry): as the sequence (Q9UGM1 whole entry) above
Neuronal acetylcholine receptor; alpha9/alpha10, sequence (Q9GZZ6 whole entry): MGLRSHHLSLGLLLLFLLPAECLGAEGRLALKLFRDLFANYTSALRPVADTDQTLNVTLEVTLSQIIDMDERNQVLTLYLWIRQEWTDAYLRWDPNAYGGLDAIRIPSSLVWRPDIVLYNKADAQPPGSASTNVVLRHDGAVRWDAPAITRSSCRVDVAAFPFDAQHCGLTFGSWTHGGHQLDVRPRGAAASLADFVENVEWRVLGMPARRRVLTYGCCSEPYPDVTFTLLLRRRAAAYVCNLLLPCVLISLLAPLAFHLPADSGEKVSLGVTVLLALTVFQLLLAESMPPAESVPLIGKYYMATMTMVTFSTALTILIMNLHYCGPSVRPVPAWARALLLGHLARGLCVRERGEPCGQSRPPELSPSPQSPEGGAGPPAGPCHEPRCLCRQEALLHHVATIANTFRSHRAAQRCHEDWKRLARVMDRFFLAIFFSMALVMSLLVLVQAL

In the case of `CC(=O)OCC[N+](C)(C)C` [ACETYLCHOLINE], the Activity (THP-1 [1]) is reported as “Non-Toxic” and the Activity (THP-1 [2]) is reported as “inactive”.

For `CC[N+]1(CC)CCN(c2ccc(-c3ncco3)cc2)CC1`, the fold change (FC) [3] was 0.823, the fold change (FC) (Oocyte [4]) was 0.353 and the Activity [5] was < 1%. For the same compound, the fold change (FC) [6] was 0.507, the Activity [7] was < 1% and the fold change (FC) [8] was 0.05. The fold change (FC) [9] was 1.29, the Activity (Oocyte [10]) was < 1% and the fold change (FC) [11] was 0.83. For the same compound, the fold change (FC) [12] was 0.12.

With `C[C@H]1O[C@@H](O[C@H]2[C@@H](O)C[C@H](O[C@H]3[C@@H](O)C[C@H](O[C@H]4CC[C@@]5(C)[C@H](CC[C@@H]6[C@@H]5C[C@@H](O)[C@]5(C)[C@@H](C7=CC(=O)OC7)CC[C@]65O)C4)O[C@@H]3C)O[C@@H]2C)C[C@H](O)[C@@H]1O` [DIGOXIN] the Papp [13] was 5.4 10^-6 cm/s.

With `CC(C)NCC(O)COc1cccc2ccccc12` (centres undefined) [PROPRANOLOL] the Papp [13] was 20 10^-6 cm/s.

For `CC[N+]1(CC)CCN(c2ccc(NC(=O)c3cccc(C)n3)cc2)CC1`, the fold change (FC) [3] was 1.07, the fold change (FC) (Oocyte [4]) was 0.38 and the Activity [5] was < 1%. The fold change (FC) [14] was 0.14, the fold change (FC) [6] was 0.415 and the Activity [7] was < 1%. For the same compound, the fold change (FC) [8] was 31.8, the Ratio [15] was 227 and the fold change (FC) [16] was 0.53. The fold change (FC) [9] was 1.24 and the Activity (Oocyte [10]) was < 1%.

`CC[N+]1(CC)CCN(c2ccc(C#N)cc2)CC1` gave a fold change (FC) [17] of 0.94, an EC50 [18] of 2570 nM and an EC50 [19] of 368 nM.

In the case of `CCN(CC)CCOC(=O)c1ccc(N)cc1` [PROCAINE], the t1/2 [20] is reported as < 5 min.

In the case of `CC[N+]1(CC)CCN(c2ccc(C(=O)Nc3ccccn3)cc2)CC1`, the fold change (FC) [3] is reported as 0.697, the fold change (FC) (Oocyte [4]) is reported as 0.506 and the Activity [5] is reported as < 1%. For the same compound, the fold change (FC) [14] was 0.46, the fold change (FC) [6] was 0.789 and the Activity [7] was < 1%. For the same compound, the fold change (FC) [8] was 0.12, the fold change (FC) [9] was 1.18 and the Activity (Oocyte [10]) was < 1%. For the same compound, the fold change (FC) [11] was 0.94.

With `CC[N+]1(CC)CCN(c2ccc(-n3cccn3)cc2)CC1` the fold change (FC) [3] was 0.913, the fold change (FC) (Oocyte [4]) was 0.59 and the Activity [5] was < 1%. For the same compound, the fold change (FC) [6] was 0.736, the Activity [7] was < 1% and the fold change (FC) [8] was 0.17. The fold change (FC) [16] was 0.59, the fold change (FC) [9] was 1.01 and the Activity (Oocyte [10]) was < 1%. It also gave a fold change (FC) [12] of 0.088.
